Measured values reported in patent publication US20150209315A1 (Cumberland Pharmaceuticals, priority 2009, published 2015).

Assays:
[1] = tested on: patients undergoing orthopedic surgical procedures; test: Example 3: pain at rest measured with VAS; details: 800 mg, immediately post-surgery
[2] = tested on: post-operative adult patients; test: Example 2: patient self-assessment of pain, VAS with movement; type: in vivo, human; details: 800 mg; on VAS Score measured with Movement (median): unit not given here
[3] = tested on: patients undergoing orthopedic surgical procedures; test: Example 3: additional measurements of efficacy; type: in vivo, human; details: 800 mg
Source text: Additional measurements of efficacy were incidence of treatment failure, time to GI motility, time to resumption of ambulation, time to resumption of liquid intake, time to resumption of solid diet, and length of hospital stay.

[4] = tested on: post-operative adult patients; test: Example 2: adverse events; type: in vivo, human; details: 800 mg
Method: Patients were evaluated and compared for morphine requirements between the active doses and placebo using analysis of variance and covariance procedures at an overall alpha level of 0.05. Secondary efficacy parameters were also evaluated and compared among the treatment groups using appropriate statistical methods described in the statistical analysis section of the protocol. Safety information was compared between the treatment groups using Chi-Square or Cochran-Mantel-Haenszel test. Demographic, background and baseline information among the treatment groups was also described.

[5] = tested on: post-operative adult patients; test: Example 1: time to GI motility, ambulation, liquid/solid intake, length of hospital stay; type: in vivo, human; details: for Time to GI motility: value + SD
[6] = tested on: patients undergoing orthopedic surgical procedures; test: Example 3: adverse events; type: in vivo, human
Method: Patients were evaluated and compared for morphine requirements between the active doses and placebo using analysis of variance and covariance procedures at an overall alpha level of 0.05. Secondary efficacy parameters were also evaluated and compared among the treatment groups using appropriate statistical methods described in the statistical analysis section of the protocol. For the adverse events, instead of using an unadjusted Chi-square test and a Cochran-Mantel-Haenszel test adjusted for center to compare treatment groups with respect to the numbers of patients reporting AEs, a Fisher's exact test was used to compare treatment groups for any AE that was reported by five or more patients.

For CC(C)Cc1ccc(C(C)C(=O)O)cc1 (stereo not drawn) [Ibuprofen, 2-(4-isobutylphenyl) propionic acid], the “decrease in the mean VAS at rest” value ([1]; AT) was 15.8%, the “decrease in the mean VAS at rest” value ([1]; efficacy evaluable) was 14.7% and the “decrease in the mean VAS at rest” value ([1]; intent-to-treat) was 16.5%. For the same molecule, the “VAS Score measured with Movement (median)” value (shortened to “VAS Score … (median)”) ([2]; EEP, 1-Hour) was 9.0, the “VAS Score measured with Movement, % Reduction vs Placebo” value (from here on “VAS Score … % Reduction vs Placebo”) ([2]; EEP, 1-Hour) was −12.5% and the “VAS Score … (median)” value ([2]; EEP, 3-Hour) was 7.0. The “VAS Score … % Reduction vs Placebo” value ([2]; EEP, 3-Hour) was 0.0%, the “VAS Score … (median)” value ([2]; EEP, 6-Hour) was 6.0 and the “VAS Score … % Reduction vs Placebo” value ([2]; EEP, 6-Hour) was 0.0%. The “VAS Score … (median)” value ([2]; EEP, 9-Hour) was 5.0, the “VAS Score … % Reduction vs Placebo” value ([2]; EEP, 9-Hour) was 0.0% and the “VAS Score … (median)” value ([2]; EEP, 12-Hour) was 4.0. For the same molecule, the “VAS Score … % Reduction vs Placebo” value ([2]; EEP, 12-Hour) was 20.0%, the “VAS Score … (median)” value ([2]; EEP, 15-Hour) was 3.0 and the “VAS Score … (median)” value ([2]; EEP, 18-Hour) was 3.0. For the same molecule, the “VAS Score … % Reduction vs Placebo” value ([2]; EEP, 18-Hour) was 25.0%, the “VAS Score … (median)” value ([2]; EEP, 21-Hour) was 3.0 and the “VAS Score … % Reduction vs Placebo” value ([2]; EEP, 21-Hour) was 25.0%. The “VAS Score … (median)” value ([2]; EEP, 24-Hour) was 3.0, the “VAS Score … % Reduction vs Placebo” value ([2]; EEP, 24-Hour) was 40.0% and the “VAS Score … (median)” value ([2]; ITT, 1-Hour) was 9.0. For the same molecule, the “VAS Score … % Reduction vs Placebo” value ([2]; ITT, 1-Hour) was −12.5%, the “VAS Score … (median)” value ([2]; ITT, 3-Hour) was 7.0 and the “VAS Score … % Reduction vs Placebo” value ([2]; ITT, 3-Hour) was 0.0%. For the same molecule, the “VAS Score … (median)” value ([2]; ITT, 6-Hour) was 6.0, the “VAS Score … % Reduction vs Placebo” value ([2]; ITT, 6-Hour) was 0.0% and the “VAS Score … (median)” value ([2]; ITT, 9-Hour) was 5.0. The “VAS Score … % Reduction vs Placebo” value ([2]; ITT, 9-Hour) was 3.8%, the “VAS Score … (median)” value ([2]; ITT, 12-Hour) was 4.3 and the “VAS Score … % Reduction vs Placebo” value ([2]; ITT, 12-Hour) was 10.4%. The “VAS Score … (median)” value ([2]; ITT, 15-Hour) was 3.4, the “VAS Score … % Reduction vs Placebo” value ([2]; ITT, 15-Hour) was 22.7% and the “VAS Score … (median)” value ([2]; ITT, 18-Hour) was 3.0. The “VAS Score … (median)” value ([2]; ITT, 21-Hour) was 3.0, the “VAS Score … % Reduction vs Placebo” value ([2]; ITT, 21-Hour) was 34.8% and the “VAS Score … (median)” value ([2]; ITT, 24-Hour) was 3.6. The “VAS Score … % Reduction vs Placebo” value ([2]; ITT, 24-Hour) was 20.0%, the “treatment failure, time to GI motility, ambulation, liquid intake, solid diet, length of hospital stay vs placebo” value [3] was “no significant differences between treatment groups” and the “patients experiencing adverse events or serious adverse events vs placebo” value [4] was “no significant differences in the number of patients experiencing adverse events or serious adverse events between groups”. The “Time to GI motility” value ([5]; 400 mg, EEP) was 20.2+1.30 hours, the “Time to GI motility” value ([5]; 400 mg, ITT) was 20.1+1.28 hours and the “Time to GI motility” value ([5]; 800 mg, EEP) was 21.2+1.63 hours. For the same molecule, the “Time to GI motility” value ([5]; 800 mg, ITT) was 21.6+1.50 hours, the “time to liquid intake vs placebo” value ([5]; ibuprofen treated group, ITT) was “not found to be statistically significant” and the “time to solid intake vs placebo” value ([5]; ibuprofen treated group, ITT) was “not found to be statistically significant”. The “Time to ambulation vs placebo” value ([5]; ibuprofen treated groups, ITT) was “found not to be statistically significant faster”, the “Length of hospital stay vs placebo” value ([5]; treated groups, ITT) was “not found to be statistically significant” and the deaths ([6]; 800 mg) was “no deaths reported”. The “incidence of serious adverse events vs placebo” value ([6]; 800 mg) was “no statistically significant difference”, the “patients that experienced dyspepsia (treatment-emergent adverse events)” value ([6]; 800 mg vs placebo) was “significantly more patients in the placebo group” and the “patients that experienced vomiting (treatment-emergent adverse events)” value ([6]; 800 mg vs placebo) was “significantly more patients in the intravenous ibuprofen group”.
